Measured values reported in patent US20130040882A1, “USE OF FIBROBLAST GROWTH FACTOR FRAGMENTS” (NOVARTIS AG, priority 2003, published 2013).
Values joined by “and” are separate entries in the source; they are usually repeats but may differ in a detail not shown here. Equal values may be shown once.

Columns and labels:
bone tissue = test: Salmon calcitonin/PTS893 monkey study: histomorphometry of bone tissue (tibia, vertebra); type: in vivo, cynomolgus monkeys (Macaca fascicularis)
Procedure: Bone sections were stained for osteonectin, osteopontin and osteocalcin and were evaluated histopathologically. Histomorphometry of the bone tissue was performed regarding parameters for bone resorption and synthesis (osteoid formation).
Histomorphometry of bone tissue was performed to determine parameters related to bone resorption and bone synthesis (osteoid formation).

[1] = Routine clinical and biochemical observations in FGF23CTP-treated monkeys; type: in vivo, cynomolgus monkey; settings: 100 μg/day sc, two weeks
[2] = tibia, group mean (males and females)
[3] = tibia, individual animals (males and females)
[4] = vertebra, group mean (males and females)
[5] = vertebra, individual animals (males and females)

Leu8, Asp10, Lysll, A1a16, G1n18, Thr33, A1a34 human PTH 1-34 [PTS893, Leu8, Asp10, Lysll, A1a16, G1n18, Thr33, A1a34 human PTH 1-34 [hPTH(1-34)]]
Increase in osteoid surface (bone tissue; tibia): 49%
Increase in osteoid volume (bone tissue; tibia): 37%
Increase in the osteoblast surface (bone tissue; tibia): 40%
Increase of cortical porosity (bone tissue; tibia (T)): 54%
Reduction of cortical thickness (bone tissue; tibia (T)): 18%
BT/TV (trabecular bone volume) (bone tissue; [2]): 21.72%
Ct Por (cortical porosity) (bone tissue; [2]): 2.90%
Ct Th (cortical thickness) (bone tissue; [2]): 951.48 μm
ES/BS (eroded surface) (bone tissue; [2]): 4.11%
OS/BS (osteoid surface) (bone tissue; [2]): 49.25%
OV/BV (osteoid volume) (bone tissue; [2]): 9.74%
Obs/BS (osteoblast surface) (bone tissue; [2]): 20.28%
Tb N (trabecular number) (bone tissue; [2]): 1.85 mm^−1
Tb Th (trabecular thickness) (bone tissue; [2]): 117.25 μm
BT/TV (trabecular bone volume) (bone tissue; [3]): 19.69% and 16.65% and 25.74% and 24.78%
Ct Por (cortical porosity) (bone tissue; [3]): 2.76% and 2.94% (2×) and 2.95%
Ct Th (cortical thickness) (bone tissue; [3]): 1022.62 μm and 893.43 μm and 950.33 μm and 939.53 μm
ES/BS (eroded surface) (bone tissue; [3]): 4.62% and 4.76% and 4.21% and 2.85%
OS/BS (osteoid surface) (bone tissue; [3]): 54.84% and 43.57% and 43.63% and 54.97%
OV/BV (osteoid volume) (bone tissue; [3]): 11.24% and 9.61% and 8.14% and 9.95%
Obs/BS (osteoblast surface) (bone tissue; [3]): 16.16% and 21.25% and 18.46% and 25.25%
Tb N (trabecular number) (bone tissue; [3]): 1.52 mm^−1 and 1.79 mm^−1 and 2.13 mm^−1 and 1.97 mm^−1
Tb Th (trabecular thickness) (bone tissue; [3]): 129.22 μm and 93.20 μm and 120.52 μm and 126.07 μm
Increase in osteoid surface (bone tissue; vertebra): 37%
Increase in osteoid volume (bone tissue; vertebra): 213%
Increase in the osteoblast surface (bone tissue; vertebra): 24%
Reduction of cortical thickness and increase of cortical porosity (bone tissue; vertebra (V)): not in vertebra
BT/TV (trabecular bone volume) (bone tissue; [4]): 20.95%
Ct Por (cortical porosity) (bone tissue; [4]): 1.07%
Ct Th (cortical thickness) (bone tissue; [4]): 675.50 μm
ES/BS (eroded surface) (bone tissue; [4]): 4.53%
OS/BS (osteoid surface) (bone tissue; [4]): 25.36%
OV/BV (osteoid volume) (bone tissue; [4]): 4.45%
Obs/BS (osteoblast surface) (bone tissue; [4]): 9.56%
Tb N (trabecular number) (bone tissue; [4]): 1.68 mm^−1
Tb Th (trabecular thickness) (bone tissue; [4]): 123.43 μm
BT/TV (trabecular bone volume) (bone tissue; [5]): 15.15% and 20.23% and 23.56% and 24.86%
Ct Por (cortical porosity) (bone tissue; [5]): 1.49% and 1.45% and 0.41% and 0.92%
Ct Th (cortical thickness) (bone tissue; [5]): 707.43 μm and 629.35 μm and 740.87 μm and 624.35 μm
ES/BS (eroded surface) (bone tissue; [5]): 9.31% and 2.30% and 2.55% and 3.96%
OS/BS (osteoid surface) (bone tissue; [5]): 18.84% and 41.28% and 23.65% and 17.66%
OV/BV (osteoid volume) (bone tissue; [5]): 3.24% and 8.42% and 3.49% and 2.66%
Obs/BS (osteoblast surface) (bone tissue; [5]): 10.36% and 9.07% and 10.47% and 8.33%
Tb N (trabecular number) (bone tissue; [5]): 1.44 mm^−1 and 1.70 mm^−1 and 1.75 mm^−1 and 1.84 mm^−1
Tb Th (trabecular thickness) (bone tissue; [5]): 105.46 μm and 118.79 μm and 134.66 μm and 134.82 μm

B1: FGF23CTP: unique 75-mer COOH-terminal peptide of FGF-23, SEQ ID NO: 2 (peptide, listed as Homo sapiens)
chain: HTRSAEDDSERDPLNVLKPRARMTPAPASCSQELPSAEDNSPMASDPLGVVRGGRVNTHAGGTGPEGCRPFAKFI
Effect on phosphate metabolism [1]: no effect
Routine clinical or biochemical changes [1]: No routine clinical or biochemical changes
